From patent US9957311B2, “Surface-binding peptide” (TIKOMED AB, priority 2013, dated 2018)
“Also recorded” adds a separate entry of the source.

Key:
Type in all cases: cell-based
MC3T3-E1 cells = assay: DNA quantification (cell number) of cells on peptide-coated Ti; conditions: 48 h culture on Ti coated with 50 μg/ml peptide, FIG. 9
Procedure: (§1) Under aseptic conditions, implants were immersed in a 3:7 (v/v) HNO3-DI water solution for 30 min at room temperature. Then, they were rinsed with milliQ water and placed in a covered milliQ water bath for 24 h. Implants were dried with N2 and were placed in a 96-well plates. Then, 200 μl of 50 μg/ml peptide solutions in PBS were added to each implant. Absorption took place for 24 h at 37° C. in a humidified atmosphere. After 24 h peptide solutions were collected and surfaces were washed with 200 μl of PBS and air-dried in order to perform cell experiments. The surfaces were denoted Ti (uncoated Ti), P1 (Ti coated with IP10-RGD), P2 (Ti coated with IP10mut-RGD), P3 (Ti coated with IP10-RGDmut) and P4 (Ti coated with IP10mut-RGDmu).
(§2) MC3T3-E1 cells were routinely cultured at 37° C. in a humidified atmosphere of 5% CO2, and maintained in α-minimum essential medium (α-MEM) supplemented with 10% fetal bovine serum (FBS) and antibiotics (50 IU penicillin/ml and 50 μg streptomycin/ml). 7.0×10^3 cells were seeded on the peptide-coated implants. Trypan blue stain was used to determine total and viable cell number. The same number of cells was cultured in parallel in plastic culture plates in the experiment. All experiments were performed after 15 passages of the MC3T3-E1 cells.
Culture media was removed from wells and plates were frozen at −80° C. until the experiment was carried out. At the day of analysis, 100 μl of distilled water were added to each well. Plates were incubated for 1 hour at room temperature. Again, plates were frozen at −80° C. to lysate cells. Plates were thawed until reaching room temperature and 100 μl of Hoechst 33258 at 20 μg/ml in THE buffer were added. Then, 200 μl aliquots were transferred to 96-well fluorescence plates and a spectrophotometer was set to record fluorescence. Relative fluorescence units were correlated with the cell number using a linear standard curve.

integrin β3 = assay: Immunocytochemistry of integrin β3 in MC3T3-E1 cells on peptide-coated Ti; conditions: after 72 h of culture, FIG. 12
Procedure: as §1, with “Adsorption” for “Absorption”, “in vitro” for “cell”, “experiments.” for “experiments. The surfaces were denoted Ti (uncoated Ti), P1 (Ti coated with IP10-RGD), P2 (Ti coated with IP10mut-RGD), P3 (Ti coated with IP10-RGDmut) and P4 (Ti coated with IP10mut-RGDmu).”
as §2, with “α-MEM” for “α-minimum essential medium (α-MEM)”, “FBS” for “fetal bovine serum (FBS)”, “4” for “15”
Cells grown for 24 and 72 h on the surfaces were fixed for 15 min with 4% formaldehyde in PBS at room temperature. Cells were incubated with 0.1% Triton X-100 for 5 min, 1% bovine serum albumin for 30 min and then with anti-integrin beta-3 antibody for 1 h at 1:50 dilution in PBS. Then, a Cy3-conjugated goat anti-rabbit IgG was used as secondary antibody for 1.5 h at 1:200 dilution in PBS. For actin cytoskeleton visualization, cells were stained with phalloidin-FITC 5 μg/mL in PBS for 30 min. Cells were washed with PBS and coin-shaped samples were placed on slides. Finally, a drop of Fluoroshield with DAPI was added and cover glasses were mounted on the samples. Two samples of each group were used to perform the experiment and two images of each sample were taken with the confocal microscope (Leica DMI 4000B equipped with Leica TCS SPE laser system).

Integrin α8 (Itga8) = assay: Real-time RT-PCR gene expression in MC3T3-E1 cells on peptide-coated Ti; conditions: after 72 h of cell culture, FIG. 11
Procedure: as §1, with “Adsorption” for “Absorption”, “in vitro” for “cell”, “The surfaces were denoted Ti (uncoated Ti), P1 (Ti coated with IP10-RGD), P2 (Ti coated with IP10mut-RGD), P3 (Ti coated with IP10-RGDmut) and P4 (Ti coated with IP10mut-RGDmu).” left out
(§3) Total RNA was isolated using Tripure, according to the manufacturer's protocol. Total RNA was quantified at 260 nm using a Nanodrop spectrophotometer. […]
(§4) Each reaction contained 7 μl Lightcycler-FastStart DNA MasterPLUS SYBR Green I (containing Fast Start Taq polymerase, reaction buffer, dNTPs mix, SYBRGreen I dye and MgCl2), 0.5 μM of each, the sense and the antisense specific primers and 3 μl of the cDNA dilution in a final volume of 10 μl. […] After each cycle, fluorescence was measured at 72° C. […]
(§5) All samples were normalized by the geometric mean of the expression levels of 18S rRNA and Gapdh and fold changes were related to day 1 of culture using the mathematical model described by Pfaffl, A new mathematical model for relative quantification in real-time RT-PCR, Nucleic Acids Research 2001, 29: e45: […]

integrin β3 (Itgb3) = assay: as above; conditions: after 72 h of cell culture, FIG. 11
Procedure: as §1, with “Adsorption” for “Absorption”, “in vitro” for “cell”, “The surfaces were denoted Ti (uncoated Ti), P1 (Ti coated with IP10-RGD), P2 (Ti coated with IP10mut-RGD), P3 (Ti coated with IP10-RGDmut) and P4 (Ti coated with IP10mut-RGDmu).” left out
as §3, §4, §5

MKKKGEGGGGGGGGRGDS (IP-10 derived peptide connected to RGD motif via poly-G-linker) [Peptide P1, surface P1 = Ti coated with it]
number of cells (DNA quantification) (MC3T3-E1 cells): highest number of cells
integrin β3 staining (integrin β3): allowed integrin β3 visualization; also recorded: highest integrin β3 staining; also recorded: allowed specific anti-integrin β3 staining
expression of Itga8 compared with uncoated surfaces (Integrin α8 (Itga8)): increased gene expression
expression of Itgb3 compared with uncoated surfaces (integrin β3 (Itgb3)): increased gene expression
